Values quoted from earlier work in patent publication US5231002A, “Synthetic SCM-active cancer recognition peptides” (priority 1990, dated 1993).

How the values were obtained:
[1] = system: potentially SCM-responding lymphocytes from donors with malignant diseases
[2] = system: lymphocytes from multiple sclerosis; conditions: lymphocytes from multiple sclerosis patients

With CaBP as the substance, how does the “effectiveness as cancer-associated antigen in the SCM test” value ([1]; known cancer-associated antigens) read?
The value was “effective in the SCM test”.

What about the “time until response of lymphocytes is lost after surgical removal of malignancy” value ([1]; malignancies of breast or colon surgically removed) of the same substance?
The value was at most 24 h.

And the “response in the SCM test (in words)” value [2]?
Its value is “do not respond”.
